# Laboratory results: PubChem BioAssay AID1919008 (Molecular Pharmacology Branch, DTP, NCI, 2023)
# System: DMS-114 complex spheroids with HUVEC/MSC, growth % test/control
# Assay: Anticancer human tumor DMS-114 cell line growth inhibition [AhR];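 further: spheroids exposed to agents for 7 days before readout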;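 on viability, T/C: 100% = DMSO vehicle control wells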
# Details: for IC50: curve of first compound; for viability, T/C: stronger effect = lower value
# Outline: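 Complex tumor spheroids co-cultured with HUVEC and human MSC stroma; AhR antagonists tested in combination with standard-of-care and investigational agents. Top concentration at or near clinical Cmax (else 10 microM), half-log dilutions; growth expressed as percent test/control.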
# [1] = second compound 0.1 µM, first compound 0.0316 µM
# [2] = second compound 0.1 µM, first compound 0.1 µM
# [3] = second compound 0.1 µM, first compound 0.316 µM
# [4] = second compound 0.1 µM, first compound 1 µM
# [5] = second compound 0.316 µM, first compound 0.0316 µM
# [6] = second compound 0.316 µM, first compound 0.1 µM
# [7] = second compound 0.316 µM, first compound 0.316 µM
# [8] = second compound 0.316 µM, first compound 1 µM
# [9] = second compound 1 µM, first compound 0.0316 µM
# [10] = second compound 1 µM, first compound 0.1 µM
# [11] = second compound 1 µM, first compound 0.316 µM
# [12] = second compound 1 µM, first compound 1 µM
# [13] = second compound 3.16 µM, first compound 0.0316 µM
# [14] = second compound 3.16 µM, first compound 0.1 µM
# [15] = second compound 3.16 µM, first compound 0.316 µM
# [16] = second compound 3.16 µM, first compound 1 µM
# [17] = second compound 10 µM, first compound 0.0316 µM
# [18] = second compound 10 µM, first compound 0.1 µM
# [19] = second compound 10 µM, first compound 0.316 µM
# [20] = second compound 10 µM, first compound 1 µM
# [21] = second compound 0.1 µM, first compound 3.16 µM
# [22] = second compound 0.1 µM, first compound 10 µM
# [23] = second compound 0.316 µM, first compound 3.16 µM
# [24] = second compound 0.316 µM, first compound 10 µM
# [25] = second compound 1 µM, first compound 3.16 µM
# [26] = second compound 1 µM, first compound 10 µM
# [27] = second compound 3.16 µM, first compound 3.16 µM
# [28] = second compound 3.16 µM, first compound 10 µM
# [29] = second compound 10 µM, first compound 3.16 µM
# [30] = second compound 10 µM, first compound 10 µM
# [31] = second compound 0.1 µM, first compound 0.00949 µM
# [32] = second compound 0.1 µM, first compound 0.03 µM
# [33] = second compound 0.1 µM, first compound 0.0949 µM
# [34] = second compound 0.1 µM, first compound 0.3 µM
# [35] = second compound 0.316 µM, first compound 0.00949 µM
# [36] = second compound 0.316 µM, first compound 0.03 µM
# [37] = second compound 0.316 µM, first compound 0.0949 µM
# [38] = second compound 0.316 µM, first compound 0.3 µM
# [39] = second compound 1 µM, first compound 0.00949 µM
# [40] = second compound 1 µM, first compound 0.03 µM
# [41] = second compound 1 µM, first compound 0.0949 µM
# [42] = second compound 1 µM, first compound 0.3 µM
# [43] = second compound 3.16 µM, first compound 0.00949 µM
# [44] = second compound 3.16 µM, first compound 0.03 µM
# [45] = second compound 3.16 µM, first compound 0.0949 µM
# [46] = second compound 3.16 µM, first compound 0.3 µM
# [47] = second compound 10 µM, first compound 0.00949 µM
# [48] = second compound 10 µM, first compound 0.03 µM
# [49] = second compound 10 µM, first compound 0.0949 µM
# [50] = second compound 10 µM, first compound 0.3 µM
smiles,measurement,setting,value
CC1COCCN1c1cc(-c2ccnn2C)c2ccnc(-c3ccn[nH]3)c2n1 (stereo not given) + CC(CO)NC(=O)c1cc(-c2ccc(Cl)cc2)nn(-c2cnn(C)c2)c1=O,IC50,second compound 0.1 µM,0.0508 µM
same,IC50,second compound 0.316 µM,0.065 µM
same,IC50,second compound 1 µM,0.0342 µM
same,IC50,second compound 3.16 µM,0.0336 µM
same,IC50,second compound 10 µM,0.0211 µM
same,"viability, T/C","second compound 0.1 µM, first compound 0.00316 µM",90.1%
same,"viability, T/C","second compound 0.1 µM, first compound 0.01 µM",82%
same,"viability, T/C",[1],59.1%
same,"viability, T/C",[2],34.4%
same,"viability, T/C",[3],27.9%
same,"viability, T/C",[4],15.8%
same,"viability, T/C","second compound 0.316 µM, first compound 0.00316 µM",93%
same,"viability, T/C","second compound 0.316 µM, first compound 0.01 µM",89.1%
same,"viability, T/C",[5],60.1%
same,"viability, T/C",[6],42.7%
same,"viability, T/C",[7],26.2%
same,"viability, T/C",[8],15.2%
same,"viability, T/C","second compound 1 µM, first compound 0.00316 µM",85.3%
same,"viability, T/C","second compound 1 µM, first compound 0.01 µM",94.4%
same,"viability, T/C",[9],51.8%
same,"viability, T/C",[10],34.4%
same,"viability, T/C",[11],27.6%
same,"viability, T/C",[12],14.6%
same,"viability, T/C","second compound 3.16 µM, first compound 0.00316 µM",84.8%
same,"viability, T/C","second compound 3.16 µM, first compound 0.01 µM",73.7%
same,"viability, T/C",[13],49.4%
same,"viability, T/C",[14],31.6%
same,"viability, T/C",[15],22.3%
same,"viability, T/C",[16],13.9%
same,"viability, T/C","second compound 10 µM, first compound 0.00316 µM",86.8%
same,"viability, T/C","second compound 10 µM, first compound 0.01 µM",63.2%
same,"viability, T/C",[17],42.2%
same,"viability, T/C",[18],29.6%
same,"viability, T/C",[19],24.1%
same,"viability, T/C",[20],14.8%
CC1COCCN1c1cc(C2(S(C)(=N)=O)CC2)nc(-c2ccnc3[nH]ccc23)n1 (stereo not given) + CC(CO)NC(=O)c1cc(-c2ccc(Cl)cc2)nn(-c2cnn(C)c2)c1=O,IC50,second compound 0.1 µM,4.22 µM
same,IC50,second compound 0.316 µM,4.93 µM
same,IC50,second compound 1 µM,4.93 µM
same,IC50,second compound 3.16 µM,2.12 µM
same,IC50,second compound 10 µM,1.78 µM
same,"viability, T/C",[1],109%
same,"viability, T/C",[2],84.7%
same,"viability, T/C",[3],96.7%
same,"viability, T/C",[4],84.6%
same,"viability, T/C",[21],54.3%
same,"viability, T/C",[22],36.1%
same,"viability, T/C",[5],94.9%
same,"viability, T/C",[6],101%
same,"viability, T/C",[7],93.4%
same,"viability, T/C",[8],89.5%
same,"viability, T/C",[23],62.2%
same,"viability, T/C",[24],30.5%
same,"viability, T/C",[9],112%
same,"viability, T/C",[10],86.6%
same,"viability, T/C",[11],85.8%
same,"viability, T/C",[12],91.2%
same,"viability, T/C",[25],55.6%
same,"viability, T/C",[26],33.4%
same,"viability, T/C",[13],105%
same,"viability, T/C",[14],106%
same,"viability, T/C",[15],93.6%
same,"viability, T/C",[16],65.4%
same,"viability, T/C",[27],43%
same,"viability, T/C",[28],27.1%
same,"viability, T/C",[17],103%
same,"viability, T/C",[18],96.1%
same,"viability, T/C",[19],98.9%
same,"viability, T/C",[20],61.1%
same,"viability, T/C",[29],41.3%
same,"viability, T/C",[30],27.7%
COc1ccc([C@@H](O)c2cc(-c3ncnc4cc(N5CCOCC5)ccc34)c(F)cc2Cl)nn1 + CC(CO)NC(=O)c1cc(-c2ccc(Cl)cc2)nn(-c2cnn(C)c2)c1=O,IC50,second compound 0.1 µM,> 10 µM
same,IC50,second compound 0.316 µM,> 10 µM
same,IC50,second compound 1 µM,> 10 µM
same,IC50,second compound 3.16 µM,> 10 µM
same,IC50,second compound 10 µM,> 10 µM
same,"viability, T/C",[1],98.8%
same,"viability, T/C",[2],100%
same,"viability, T/C",[3],100%
same,"viability, T/C",[4],105%
same,"viability, T/C",[21],108%
same,"viability, T/C",[22],61%
same,"viability, T/C",[5],98.5%
same,"viability, T/C",[6],96.2%
same,"viability, T/C",[7],90.4%
same,"viability, T/C",[8],94.9%
same,"viability, T/C",[23],101%
same,"viability, T/C",[24],63.3%
same,"viability, T/C",[9],92%
same,"viability, T/C",[10],95.5%
same,"viability, T/C",[11],96.7%
same,"viability, T/C",[12],107%
same,"viability, T/C",[25],98.3%
same,"viability, T/C",[26],63.8%
same,"viability, T/C",[13],108%
same,"viability, T/C",[14],99.8%
same,"viability, T/C",[15],91.9%
same,"viability, T/C",[16],103%
same,"viability, T/C",[27],104%
same,"viability, T/C",[28],64.2%
same,"viability, T/C",[17],104%
same,"viability, T/C",[18],97.5%
same,"viability, T/C",[19],95.1%
same,"viability, T/C",[20],87.5%
same,"viability, T/C",[29],81.2%
same,"viability, T/C",[30],55.2%
Nc1ncn(C2CC(O)C(CO)S2)c(=O)n1 (stereo not given) + CC(CO)NC(=O)c1cc(-c2ccc(Cl)cc2)nn(-c2cnn(C)c2)c1=O,IC50,second compound 0.1 µM,> 0.3 µM
same,IC50,second compound 0.316 µM,> 0.3 µM
same,IC50,second compound 1 µM,> 0.3 µM
same,IC50,second compound 3.16 µM,> 0.3 µM
same,IC50,second compound 10 µM,> 0.3 µM
same,"viability, T/C","second compound 0.1 µM, first compound 0.000949 µM",117%
same,"viability, T/C","second compound 0.1 µM, first compound 0.003 µM",101%
same,"viability, T/C",[31],108%
same,"viability, T/C",[32],115%
same,"viability, T/C",[33],85.3%
same,"viability, T/C",[34],59.5%
same,"viability, T/C","second compound 0.316 µM, first compound 0.000949 µM",111%
same,"viability, T/C","second compound 0.316 µM, first compound 0.003 µM",113%
same,"viability, T/C",[35],92.7%
same,"viability, T/C",[36],89.5%
same,"viability, T/C",[37],79.9%
same,"viability, T/C",[38],58.3%
same,"viability, T/C","second compound 1 µM, first compound 0.000949 µM",107%
same,"viability, T/C","second compound 1 µM, first compound 0.003 µM",107%
same,"viability, T/C",[39],96.9%
same,"viability, T/C",[40],102%
same,"viability, T/C",[41],80%
same,"viability, T/C",[42],55.7%
same,"viability, T/C","second compound 3.16 µM, first compound 0.000949 µM",112%
same,"viability, T/C","second compound 3.16 µM, first compound 0.003 µM",107%
same,"viability, T/C",[43],115%
same,"viability, T/C",[44],118%
same,"viability, T/C",[45],66.2%
same,"viability, T/C",[46],51.9%
same,"viability, T/C","second compound 10 µM, first compound 0.000949 µM",126%
same,"viability, T/C","second compound 10 µM, first compound 0.003 µM",108%
same,"viability, T/C",[47],108%
same,"viability, T/C",[48],103%
same,"viability, T/C",[49],87.8%
same,"viability, T/C",[50],58%
O=C(C=Cn1cnc(-c2cc(C(F)(F)F)cc(C(F)(F)F)c2)n1)NNc1cnccn1 + CC(CO)NC(=O)c1cc(-c2ccc(Cl)cc2)nn(-c2cnn(C)c2)c1=O,IC50,second compound 0.1 µM,0.183 µM
same,IC50,second compound 0.316 µM,0.156 µM
same,IC50,second compound 1 µM,0.169 µM
same,IC50,second compound 3.16 µM,0.18 µM
same,IC50,second compound 10 µM,0.209 µM
same,"viability, T/C",[31],103%
same,"viability, T/C",[32],99.2%
same,"viability, T/C",[33],63.3%
same,"viability, T/C",[34],38.2%
same,"viability, T/C","second compound 0.1 µM, first compound 0.949 µM",18.7%
same,"viability, T/C","second compound 0.1 µM, first compound 3 µM",7.72%
same,"viability, T/C",[35],97.8%
same,"viability, T/C",[36],93.9%
same,"viability, T/C",[37],57.2%
same,"viability, T/C",[38],36.1%
same,"viability, T/C","second compound 0.316 µM, first compound 0.949 µM",16.8%
same,"viability, T/C","second compound 0.316 µM, first compound 3 µM",7.29%
same,"viability, T/C",[39],85.8%
same,"viability, T/C",[40],97.2%
same,"viability, T/C",[41],59.4%
same,"viability, T/C",[42],37%
same,"viability, T/C","second compound 1 µM, first compound 0.949 µM",16.4%
same,"viability, T/C","second compound 1 µM, first compound 3 µM",8.32%
same,"viability, T/C",[43],97.1%
same,"viability, T/C",[44],121%
same,"viability, T/C",[45],54.1%
same,"viability, T/C",[46],43.9%
same,"viability, T/C","second compound 3.16 µM, first compound 0.949 µM",17.7%
same,"viability, T/C","second compound 3.16 µM, first compound 3 µM",6.66%
same,"viability, T/C",[47],95.2%
same,"viability, T/C",[48],96.4%
same,"viability, T/C",[49],64.2%
same,"viability, T/C",[50],44%
same,"viability, T/C","second compound 10 µM, first compound 0.949 µM",18.4%
same,"viability, T/C","second compound 10 µM, first compound 3 µM",9.22%
